Assay results published in patent US11938120B1 (priority 2023, dated 2024).
≈ marks a conversion by molar mass, not a printed value.

Key:
[1] = tested on: Mycobacterium tuberculosis H37Rv (ATCC 25177); experiment: Anti-tubercular activity, colorimetric Resazurin Microplate Assay (REMA), susceptible strain; assay type: cell-based; details: 192 h, Middlebrook 7H9 broth, 37° C., 8 days of incubation then resazurin overnight, read-out: MIC (μg/mL) Susceptible (H37Rv)

Row | Structure (SMILES) | melting point [°C] | MIC [1] [µg/mL]
1 | CCOC(=O)c1cc(C(=O)c2ccc(C)cc2)n2c1ccc1cc(C)ccc12 | 155 to 156 | 
2 | CCOC(=O)c1cc(C(=O)c2ccccc2)n2c1ccc1cc(C)ccc12 | 139 to 140 | 
3 | CCOC(=O)c1cc(C(=O)c2ccc(F)cc2)n2c1ccc1cc(C)ccc12 | 163 to 164 | 
4 | CCOC(=O)c1cc(C(=O)c2ccccc2[N+](=O)[O-])n2c1ccc1cc(C)ccc12 [Compound 4d, Ethyl 7-methyl-1-(2-nitrobenzoyl)pyrrolo[1,2-a]quinoline-3-carboxylate] | 174 to 175 | 8 (≈ 19.9 µM)
5 | CCOC(=O)c1cc(C(=O)c2ccc(Br)cc2)n2c1ccc1cc(C)ccc12 [Compound 4e, Ethyl 1-(4-bromobenzoyl)-7-methylpyrrolo[1,2-a]quinoline-3-carboxylate] | 180 to 181 | 32 (≈ 73.3 µM)
6 | CCOC(=O)c1cc(C(=O)c2cc(C(F)(F)F)cc(C(F)(F)F)c2)n2c1ccc1cc(C)ccc12 [Compound 4f, Ethyl 1-(3,5-bis(trifluoromethyl)benzoyl)-7-methylpyrrolo[1,2-a]quinoline-3-carboxylate] | 223 to 224 | 16 (≈ 32.4 µM)
